Laboratory results from US20190336496A1, “SELECTIVE BCL-2 INHIBITORS IN COMBINATION WITH AN ANTI-PD-1 OR AN ANTI-PD-L1 ANTIBODY FOR THE TREATMENT OF CANCERS” (AbbVie Inc., priority 2018, published 2019).

What was measured:
[1] = test system: CT26 tumors; experiment: CT26 mouse colon carcinoma syngeneic model; format: in vivo; conditions: CT26 in BALB/c mice; venetoclax 50 mg/kg/day orally 14 days; antibody 10 mg/kg IP every 4 days, 3 times; day 18
[2] = test system: EMT6 tumors; experiment: EMT6 mouse mammary carcinoma syngeneic model; format: in vivo; conditions: EMT6; venetoclax 50 mg/kg daily for 14 days
Method: All experiments were conducted in compliance with the National Institutes of Health Guide for Care and Use of Laboratory Animals guidelines in a facility accredited by the Association for the Assessment and Accreditation of Laboratory Animal Care (AAALAC). BALB/c, C57BL/6, CB6F1 (C57BL/6 bred with BALB/c) and SCID mice were obtained from Charles River (Wilmington, Mass.). SCID mice have severe combined immune deficiency (SCID) and are characterized by an absence of functional T- and B-cells.
EMT6, mouse mammary carcinoma and CT26, mouse colon carcinoma, cell lines were obtained from ATCC (Manassas, Va.). MC38, mouse colon carcinoma cell line was obtained from National Cancer Institute (NCI).
Compound (I),venetoclax, was formulated in 10% ethanol+30% PEG 400+60% Phosal® 50PG. Venetoclax was administered orally once a day for 14 days at 50 mg/kg/day.
1×10^5 CT26, EMT6 or MC38 cells were subcutaneously injected with Matrigel into the flanks of BALB/c, CB6F1 or C57BL/6 mice, respectively. Seven days later, mice were randomized to treatment groups of vehicle, venetoclax, anti-PD-1/PD-L1 or the combination of venetoclax and anti-PD-1/PD-L1. Tumor volume was determined via measurements of the length (L) and width (W) of the tumor with electronic calipers and the volume was calculated according to the following equation: V=L×W2/2 using Study Director Version 2.1.11 (Studylog Systems Inc., South San Francisco). Complete response (CR) was defined as reduction in tumor volume to ≤25 mm^3 over at least 3 successive measurements.

[3] = test system: mouse lymphocytes; experiment: In vivo sensitivity of lymphocytes (flow cytometry)
Method: FIG. 2: In vivo sensitivity of lymphocytes to Compound (I). […] Descriptions of each sub-section are as follows: (A) In vivo sensitivity of lymphocytes following one week of treatment with Compound (I). Naïve CB6F1 mice were treated daily with Compound (I) (50/mg/kg) for one week. Lymph nodes were collected, and immune cells were quantified by flow cytometry; (B) In vivo sensitivity of splenocytes following one week of treatment with Compound (I). Naïve C57BL/6 mice were treated daily with Compound (I) (50/mg/kg) for one week. Spleens were collected and immune cells were quantified by flow cytometry. Mouse splenocytes, including B-cells, CD8+ T-cells, and CD4+ T-cells, were sensitive to in vivo treatment with Compound (I), as described in Example 1; (C) In vivo sensitivity of T-cell subsets in splenocytes following one week of treatment with Compound (I). CD4+ naïve T-cells (TN) and CD8+ central memory T-cells in the spleen from C57BL/6 mice were slightly sensitive to in vivo Compound (I) treatment while the proportion of CD4+ and CD8+ effector memory T-cells (TEM) was increasing; and (D) In vivo sensitivity of T-cell subsets in the blood following one week of treatment with Compound (I). The proportion of CD4+ and CD8+ effector memory T cells (TEM) increased in the blood from C57BL/6 mice following in vivo Compound (I) treatment.
Cancer Immunol Res. 5; 29-41 (2017)). Any reduction in checkpoint inhibitor-mediated tumor growth inhibition or response rates caused by the addition of venetoclax would indicate potential antagonism. The panel was composed of syngeneic models of solid tumors: CT26, MC38 (both colorectal carcinoma) and EMT6 (breast cancer). […] Likewise, only modest anti-tumor activity could be observed in these models with venetoclax alone, dosed daily at 50 mg/kg for 14 days (FIG. 3, FIG. 6, FIGS. 12A, 12B, 12C, and 12D). […] Rather, it enhanced their efficacy in certain cases.

[4] = test system: human PBMCs; experiment: In vitro sensitivity of human PBMCs; format: cell-based
Method: Human PBMCs were thawed and cultured overnight in 30 U/mL of interleukin-2 (IL-2). Cells were harvested, washed once with complete media and counted. PBMCs were plated at a density of 5×10^5 cells per well in a 48-well plate with 30 U/mL IL-2. For stimulation of T-cells, cells were plated in anti-CD3-coated wells (2.5 μg/mL; ThermoFisher cat. #16-0037-85, clone OKT3) and soluble anti-CD28 was added (1 μg/mL; ThermoFisher cat. #16-0289-85, clone CD28.2). Cells were treated with increasing concentrations of venetoclax for 24 hours (dimethyl sulfoxide (DMSO) was used as control). Cells were harvested, stained and subjected to flow cytometry analysis with a BD LSRII instrument (BD Biosciences)
However, when PBMCs were stimulated with anti-CD3 and anti-CD28 for 72 hours before treating with venetoclax, the T-cells were not sensitive to venetoclax. (FIG. 7B). While the proportion of naïve T-cells (CD4^+CD62L^+CD45RO^− and […]) decreased with increasing venetoclax concentrations, the proportion of CD4^+ central memory (TCM; CD62L^+CD45RO^+) and CD8^+ terminally differentiated effector memory (TEMRA; CD8^+CD62L^−CD45RO^−) and effector memory cells (TEM; CD8^+CD62L^−CD45RO^+) increased relative to the number of surviving T-cells (FIGS. 8A and 8C). […] In separate experiments, human PBMCs were thawed, rested overnight and then treated with venetoclax for 24 hours. Similar results were observed when increasing the number of tested samples (n=9 donors), and refining the markers for the different T-cell subsets: naïve T-cells (TN; CD62L+CD45RA+), central memory (TCM; CD62L+CD45RA−), effector memory cells (TEM; CD62L−CD45RA−) and terminally differentiated effector memory (TEMRA; CD62L−CD45RA+) (FIGS. 8E, 8F, 8G). Venetoclax decreases the proportion of naïve T-cells, but not memory cells, and specifically induces an increase in effector memory T-cells. It can therefore be seen that, while naïve T- and B-cells were sensitive to venetoclax, memory T-cells were less sensitive to venetoclax. While TCM cells home to lymph nodes and efficiently stimulate dendritic cells, TEM and TEMRA cells home to tissues, comprised of antigen-experienced cells and are ready to mediate rapid effector and cytotoxic functions necessary to kill the tumor.

[5] = test system: B-lymphocytes and T-cell populations; conditions: cited from earlier work
[6] = unstimulated, increasing concentrations

CC1(C)CCC(CN2CCN(c3ccc(C(=O)NS(=O)(=O)c4ccc(NCC5CCOCC5)c([N+](=O)[O-])c4)c(Oc4cnc5[nH]ccc5c4)c3)CC2)=C(c2ccc(Cl)cc2)C1 [Compound (I), venetoclax]
tumor growth inhibition (TGI) [1]: 16%
anti-tumor activity as single agent [2]: modest activity
sensitivity of lymphocytes in lymph node, spleen and blood (B-cells, CD8+ T-cells, CD4+ T-cells) ([3]; daily 50/mg/kg for one week, flow cytometry): sensitive
murine T-cell populations in vivo ([3]; mice treated daily at 50 mg/kg for one week): clear reductions
proportion of memory cells, specifically effector memory cells ([3]; spleen and blood of C57BL/6 mice, one week of treatment): increase
proportion of the T-cell subsets ([4]; CD3/CD28 stimulated conditions): did not affect
sensitivity of T-cells ([4]; PBMCs stimulated with anti-CD3 and anti-CD28 for 72 hours before treatment): not sensitive
number of B-cells and T-cells (CD4+ and CD8+) ([4]; unstimulated PBMCs cultured 72 hours, then 24 hours treatment): dose-dependent decrease
proportion of CD4+ TCM, CD8+ TEMRA and CD8+ TEM cells relative to surviving T-cells [4, 6]: increased
proportion of naïve T-cells [4, 6]: decreased
reductions in T-cell populations ([5]; Lu et al. 2017, Khaw et al. 2014): up to 30%
reductions in B-lymphocytes ([5]; clinically and in experimental studies): significant reductions
